Assay results as given in patent US12043632B2, “6-heteroaryloxy benzimidazoles and azabenzimidazoles as JAK2 inhibitors” (Ajax Therapeutics, Inc., priority 2020, dated 2024).

Target: T1, JAK2 (JH1domain-catalytic, Y1007F,Y1008F) kinase (Homo sapiens, UniProt O60674, Y1007F/Y1008F)
T1 construct: JAK2 (JH1domain-catalytic, Y1007F,Y1008F) kinase was expressed as N-terminal fusion; made in house; host or cells: transiently transfected HEK293 cells
Assay: JAK2 JH1 Domain Binding Assay
Details: qPCR readout

T1 sequence (O60674 849-1124 Y1007F/Y1008F limits assumed): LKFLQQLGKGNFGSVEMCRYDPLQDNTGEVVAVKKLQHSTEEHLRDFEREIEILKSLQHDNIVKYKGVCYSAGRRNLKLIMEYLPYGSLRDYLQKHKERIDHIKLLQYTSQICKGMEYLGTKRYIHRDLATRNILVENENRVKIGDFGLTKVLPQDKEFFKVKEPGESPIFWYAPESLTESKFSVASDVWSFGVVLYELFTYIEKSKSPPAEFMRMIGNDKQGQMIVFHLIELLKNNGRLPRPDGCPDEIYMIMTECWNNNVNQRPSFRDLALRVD

Row | Kd | Structure (SMILES)
1 | 50 to 1000 nM | CNc1cn2ncc(Oc3cnc4nc(Nc5cc(CN6CCC6)cc(C(F)(F)F)c5)n(C)c4c3Cl)c2cn1 [Example I-357, N-(3-(azetidin-1-ylmethyl)-5-(trifluoromethyl)phenyl)-7-chloro-1-methyl-6-((6-(methylamino)pyrazolo[1,5-a]pyrazin-3-yl)oxy)-1H-imidazo[4,5-b]pyridin-2-amine]
2 | 50 to 1000 nM | CNc1cn2ncc(Oc3cnc4nc(Nc5cc(CN6CC(F)C6)cc(C(F)(F)F)c5)n(C)c4c3Cl)c2cn1 [Example I-358, 7-chloro-N-(3-((3-fluoroazetidin-1-yl)methyl)-5-(trifluoromethyl)phenyl)-1-methyl-6-((6-(methylamino)pyrazolo[1,5-a]pyrazin-3-yl)oxy)-1H-imidazo[4,5-b]pyridin-2-amine]
3 | 50 to 1000 nM | CNc1cn2ncc(Oc3cnc4nc(Nc5ccc(CN6CC[C@H](OC)C6)c(C(F)(F)F)c5)n(C)c4c3Cl)c2cn1 [Example I-360, (S)-7-chloro-N-(4-((3-methoxypyrrolidin-1-yl)methyl)-3-(trifluoromethyl)phenyl)-1-methyl-6-((6-(methylamino)pyrazolo[1,5-a]pyrazin-3-yl)oxy)-1H-imidazo[4,5-b]pyridin-2-amine]
4 | 50 to 1000 nM | CNc1cn2ncc(Oc3cnc4nc(Nc5ccc(CN6CC[C@@H](OC)C6)c(C(F)(F)F)c5)n(C)c4c3Cl)c2cn1 [Example I-361, (R)-7-chloro-N-(4-((3-methoxypyrrolidin-1-yl)methyl)-3-(trifluoromethyl)phenyl)-1-methyl-6-((6-(methylamino)pyrazolo[1,5-a]pyrazin-3-yl)oxy)-1H-imidazo[4,5-b]pyridin-2-amine]
5 | 10 to 50 nM | Cn1c(Nc2cc3n(n2)CCCC3(F)F)nc2ncc(Oc3cnn4ccncc34)c(C#N)c21 [Example I-362, 2-((4,4-difluoro-4,5,6,7-tetrahydropyrazolo[1,5-a]pyridin-2-yl)amino)-1-methyl-6-(pyrazolo[1,5-a]pyrazin-3-yloxy)-1H-imidazo[4,5-b]pyridine-7-carbonitrile]
6 | 10 to 50 nM | COc1cn2ncc(Oc3cnc4nc(Nc5cc(C(F)(F)F)cn(C)c5=O)n(C)c4c3Cl)c2cn1 [Example I-363, 3-((7-chloro-6-((6-methoxypyrazolo[1,5-a]pyrazin-3-yl)oxy)-1-methyl-1H-imidazo[4,5-b]pyridin-2-yl)amino)-1-methyl-5-(trifluoromethyl)pyridin-2(1H)-one]
7 | 10 to 50 nM | COc1cn2ncc(Oc3cnc4nc(Nc5cc(C(F)(F)F)cn(C)c5=O)n(C)c4c3C#N)c2cn1 [Example I-364, 6-((6-methoxypyrazolo[1,5-a]pyrazin-3-yl)oxy)-1-methyl-2-((1-methyl-2-oxo-5-(trifluoromethyl)-1,2-dihydropyridin-3-yl)amino)-1H-imidazo[4,5-b]pyridine-7-carbonitrile]
8 | < 10 nM | COCCOc1cn2ncc(Oc3cnc4nc(Nc5cc(C(F)(F)F)cn(C)c5=O)n(C)c4c3Cl)c2cn1 [Example I-365, 3-((7-chloro-6-((6-(2-methoxyethoxy)pyrazolo[1,5-a]pyrazin-3-yl)oxy)-1-methyl-1H-imidazo[4,5-b]pyridin-2-yl)amino)-1-methyl-5-(trifluoromethyl)pyridin-2(1H)-one]
9 | < 10 nM | Cn1c(Nc2cc3n(n2)CCCC3(F)F)nc2ncc(Oc3cnn4ccccc34)c(C#N)c21 [Example I-366, 2-((4,4-difluoro-4,5,6,7-tetrahydropyrazolo[1,5-a]pyridin-2-yl)amino)-1-methyl-6-(pyrazolo[1,5-a]pyridin-3-yloxy)-1H-imidazo[4,5-b]pyridine-7-carbonitrile]
10 | < 10 nM | COCCOc1cn2ncc(Oc3cnc4nc(Nc5cc(C(F)(F)F)cn(C)c5=O)n(C)c4c3C#N)c2cn1 [Example I-367, 6-((6-(2-methoxyethoxy)pyrazolo[1,5-a]pyrazin-3-yl)oxy)-1-methyl-2-((1-methyl-2-oxo-5-(trifluoromethyl)-1,2-dihydropyridin-3-yl)amino)-1H-imidazo[4,5-b]pyridine-7-carbonitrile]
11 | < 10 nM | CN(C)c1n[nH]c2ncc(Oc3cnc4nc(Nc5cc(C(F)(F)F)cn(C)c5=O)n(C)c4c3C#N)cc12 [Example I-368, 6-((3-(dimethylamino)-1H-pyrazolo[3,4-b]pyridin-5-yl)oxy)-1-methyl-2-((1-methyl-2-oxo-5-(trifluoromethyl)-1,2-dihydropyridin-3-yl)amino)-1H-imidazo[4,5-b]pyridine-7-carbonitrile]
12 | < 10 nM | COCCOc1ccc2c(Oc3cnc4nc(Nc5cc6n(n5)CCCC6(F)F)n(C)c4c3C#N)cnn2c1 [Example I-369, 2-((4,4-difluoro-4,5,6,7-tetrahydropyrazolo[1,5-a]pyridin-2-yl)amino)-6-((6-(2-methoxyethoxy)pyrazolo[1,5-a]pyridin-3-yl)oxy)-1-methyl-1H-imidazo[4,5-b]pyridine-7-carbonitrile]
13 | < 10 nM | Cn1c(Nc2cc3n(n2)CCCC3(F)F)nc2ncc(Oc3cnc4[nH]ncc4c3)c(C#N)c21 [Example I-370, 6-((1H-pyrazolo[3,4-b]pyridin-5-yl)oxy)-2-((4,4-difluoro-4,5,6,7-tetrahydropyrazolo[1,5-a]pyridin-2-yl)amino)-1-methyl-1H-imidazo[4,5-b]pyridine-7-carbonitrile]
14 | < 10 nM | CNc1nccn2ncc(Oc3cnc4nc(Nc5cc6n(n5)CCCC6(F)F)n(C)c4c3C#N)c12 [Example I-373, 2-((4,4-difluoro-4,5,6,7-tetrahydropyrazolo[1,5-a]pyridin-2-yl)amino)-1-methyl-6-((4-(methylamino)pyrazolo[1,5-a]pyrazin-3-yl)oxy)-1H-imidazo[4,5-b]pyridine-7-carbonitrile]
15 | < 10 nM | COc1ccc2c(Oc3cnc4nc(Nc5cc6n(n5)CCCC6(F)F)n(C)c4c3C#N)cnn2c1 [Example I-374, 2-((4,4-difluoro-4,5,6,7-tetrahydropyrazolo[1,5-a]pyridin-2-yl)amino)-6-((6-methoxypyrazolo[1,5-a]pyridin-3-yl)oxy)-1-methyl-1H-imidazo[4,5-b]pyridine-7-carbonitrile]
16 | < 10 nM | COCCOc1cn2ncc(Oc3cnc4nc(Nc5cc(C6CC6)cn(C)c5=O)n(C)c4c3Cl)c2cn1 [Example I-375, 3-((7-chloro-6-((6-(2-methoxyethoxy)pyrazolo[1,5-a]pyrazin-3-yl)oxy)-1-methyl-1H-imidazo[4,5-b]pyridin-2-yl)amino)-5-cyclopropyl-1-methylpyridin-2(1H)-one]
17 | < 10 nM | Cn1cc(C(F)(F)F)cc(Nc2nc3ncc(Oc4cnn5cc(OCCN6CCOCC6)ncc45)c(Cl)c3n2C)c1=O [Example I-376, 3-((7-chloro-1-methyl-6-((6-(2-morpholinoethoxy)pyrazolo[1,5-a]pyrazin-3-yl)oxy)-1H-imidazo[4,5-b]pyridin-2-yl)amino)-1-methyl-5-(trifluoromethyl)pyridin-2(1H)-one]
18 | < 10 nM | Cn1cc(C(F)(F)F)cc(Nc2nc3ncc(Oc4cnn5cc(OCCN6CCOCC6)ncc45)c(C#N)c3n2C)c1=O [Example I-377, 1-methyl-2-((1-methyl-2-oxo-5-(trifluoromethyl)-1,2-dihydropyridin-3-yl)amino)-6-((6-(2-morpholinoethoxy)pyrazolo[1,5-a]pyrazin-3-yl)oxy)-1H-imidazo[4,5-b]pyridine-7-carbonitrile]
